Earlier results on one compound are cited in patent US20060088612A1, “Composition for treatment of topical infection and methods of making and using same” (priority 2004, published 2006).

In the data set the test system is HSV. Conditions: topical medication for HSV.

Each structure is given as a SMILES string.

Consider `CCCCCCCCCCCCCCCCCCCCCCO` [docosanol], for which the effectiveness versus placebo result is listed as “no more effective than a placebo”.
